Publication PMC4452912 (Viruses, 2015)

Legend:
CYP2C9 = CYP2C9 (Homo sapiens, UniProt P11712); experiment: CYP inhibition in human liver microsomes, CYP2C9; assay type: in vitro ADME
CYP2C19 = CYP2C19 (Homo sapiens, UniProt P33261); experiment: CYP inhibition in human liver microsomes, CYP2C19; assay type: in vitro ADME
Mouse pharmacokinetics = assay type: in vivo, Swiss Albino mice; settings: male, Swiss Albino
[1] = system: DENV (serotype 2, New Guinea C isolate); experiment: microbe, parasite or virus in culture; assay type: cell-based; settings: Dengue virus, DENV2, 120 h; Vero cells, MOI 0.01, 5 days; mean of duplicate
in vitro [2] = assay type: in vitro ADME; settings: human, Caco-2
[3] = Maximum tolerated dose in guinea pigs; assay type: in vivo, Hartley guinea pigs; settings: for MTD at 7 days: female, Hartley, guinea pig, in vivo, single bolus
[4] = system: circulating cytokines and chemokines; experiment: Serum cytokine levels in DENV infected AG129 mice (23-plex); assay type: in vivo; settings: 100 mg/kg TID
in vitro [5] = assay type: in vitro ADME; settings: mouse, microsomes
in vitro [6] = assay type: in vitro ADME; settings: rat, plasma
ER α-glucosidase I = target: T1, ER α-glucosidase I (Rattus norvegicus, UniProt O88941); experiment: Purified enzyme inhibition, ER α-glucosidase I; assay type: biochemical
T1 sequence (O88941 1-834): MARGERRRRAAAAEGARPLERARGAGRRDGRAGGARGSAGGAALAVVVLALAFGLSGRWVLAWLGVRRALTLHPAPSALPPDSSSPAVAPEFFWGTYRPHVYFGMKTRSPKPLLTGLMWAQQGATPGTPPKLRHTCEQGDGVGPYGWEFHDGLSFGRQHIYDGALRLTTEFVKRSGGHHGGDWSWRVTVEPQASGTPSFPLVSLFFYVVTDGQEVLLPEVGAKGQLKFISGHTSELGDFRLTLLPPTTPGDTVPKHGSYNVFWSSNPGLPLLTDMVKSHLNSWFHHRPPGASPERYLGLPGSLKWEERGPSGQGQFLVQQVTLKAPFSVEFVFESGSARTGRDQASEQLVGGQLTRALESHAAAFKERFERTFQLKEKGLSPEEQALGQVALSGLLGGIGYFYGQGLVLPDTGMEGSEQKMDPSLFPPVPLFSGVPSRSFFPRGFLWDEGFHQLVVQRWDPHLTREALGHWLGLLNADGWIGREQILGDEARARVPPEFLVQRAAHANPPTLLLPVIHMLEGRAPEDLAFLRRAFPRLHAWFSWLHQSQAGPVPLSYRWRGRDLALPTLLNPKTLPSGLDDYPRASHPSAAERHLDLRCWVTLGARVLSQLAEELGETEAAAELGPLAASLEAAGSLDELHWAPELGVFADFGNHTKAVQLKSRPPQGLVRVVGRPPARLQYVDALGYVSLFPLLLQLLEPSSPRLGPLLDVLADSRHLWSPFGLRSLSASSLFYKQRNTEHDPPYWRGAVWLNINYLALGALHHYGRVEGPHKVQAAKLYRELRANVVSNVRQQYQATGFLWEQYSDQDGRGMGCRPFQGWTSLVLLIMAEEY

in vitro [7] = assay type: cell-based; settings: African green monkey
in vitro [8] = assay type: in vitro ADME; settings: human, plasma
hERG = target: T2, hERG (Homo sapiens, UniProt Q12809); experiment: Functional hERG assay, automated whole-cell patch clamp in CHO cells; assay type: cell-based
T2 construct: expressed in transfected cells; host or cells: CHO

in vitro [9] = assay type: in vitro ADME; settings: mouse, plasma
[10] = system: Venezuelan Equine Encephalitis virus (VEEV, TC-83 vaccine strain); experiment: microbe, parasite or virus in culture; assay type: cell-based; settings: Vero, 72 h, read-out: IC50 VEEV

T2 sequence (Q12809 whole entry): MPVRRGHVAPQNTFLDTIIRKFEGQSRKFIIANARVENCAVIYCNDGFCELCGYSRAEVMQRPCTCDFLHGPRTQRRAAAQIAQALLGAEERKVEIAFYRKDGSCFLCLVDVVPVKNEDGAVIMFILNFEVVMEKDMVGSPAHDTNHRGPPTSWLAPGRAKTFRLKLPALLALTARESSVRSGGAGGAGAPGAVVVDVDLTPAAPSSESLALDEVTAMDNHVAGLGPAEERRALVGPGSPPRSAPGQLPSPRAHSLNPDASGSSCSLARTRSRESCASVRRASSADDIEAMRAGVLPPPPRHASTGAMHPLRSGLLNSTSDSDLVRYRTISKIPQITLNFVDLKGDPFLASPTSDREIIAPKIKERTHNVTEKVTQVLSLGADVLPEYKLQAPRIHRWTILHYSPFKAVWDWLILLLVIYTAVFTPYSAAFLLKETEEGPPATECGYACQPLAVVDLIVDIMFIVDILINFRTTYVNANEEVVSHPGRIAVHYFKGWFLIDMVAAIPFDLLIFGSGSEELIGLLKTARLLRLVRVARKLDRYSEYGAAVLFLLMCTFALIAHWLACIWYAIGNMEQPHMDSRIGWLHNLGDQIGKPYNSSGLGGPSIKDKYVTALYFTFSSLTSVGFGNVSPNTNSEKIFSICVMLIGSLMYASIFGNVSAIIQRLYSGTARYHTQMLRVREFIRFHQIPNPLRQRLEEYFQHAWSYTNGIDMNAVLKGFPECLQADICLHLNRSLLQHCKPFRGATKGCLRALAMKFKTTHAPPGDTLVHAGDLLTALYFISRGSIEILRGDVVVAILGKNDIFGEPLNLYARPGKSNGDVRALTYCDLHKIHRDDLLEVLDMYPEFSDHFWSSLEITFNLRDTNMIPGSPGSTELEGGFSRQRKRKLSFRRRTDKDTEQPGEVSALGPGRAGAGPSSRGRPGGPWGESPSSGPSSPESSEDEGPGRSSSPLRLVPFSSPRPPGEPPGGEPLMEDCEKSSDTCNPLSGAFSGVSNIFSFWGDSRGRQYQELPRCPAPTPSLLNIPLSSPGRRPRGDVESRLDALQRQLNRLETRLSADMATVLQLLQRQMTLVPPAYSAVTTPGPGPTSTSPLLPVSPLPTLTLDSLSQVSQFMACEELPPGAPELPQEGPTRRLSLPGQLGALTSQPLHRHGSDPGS
Sequence of CYP2C19 (P33261 whole entry): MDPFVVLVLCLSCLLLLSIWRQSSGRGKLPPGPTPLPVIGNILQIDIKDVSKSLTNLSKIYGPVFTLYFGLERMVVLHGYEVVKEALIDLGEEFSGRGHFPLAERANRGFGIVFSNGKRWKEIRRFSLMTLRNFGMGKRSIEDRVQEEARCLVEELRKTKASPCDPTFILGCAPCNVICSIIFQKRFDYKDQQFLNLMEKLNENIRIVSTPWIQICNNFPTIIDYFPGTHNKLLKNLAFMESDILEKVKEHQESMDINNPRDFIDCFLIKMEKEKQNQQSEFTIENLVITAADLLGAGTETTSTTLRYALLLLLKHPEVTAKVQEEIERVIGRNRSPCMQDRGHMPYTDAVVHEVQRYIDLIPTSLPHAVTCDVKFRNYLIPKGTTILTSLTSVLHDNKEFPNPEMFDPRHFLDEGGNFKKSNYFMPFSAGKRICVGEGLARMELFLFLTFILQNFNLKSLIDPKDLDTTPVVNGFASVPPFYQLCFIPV
Sequence of CYP2C9 (P11712 whole entry): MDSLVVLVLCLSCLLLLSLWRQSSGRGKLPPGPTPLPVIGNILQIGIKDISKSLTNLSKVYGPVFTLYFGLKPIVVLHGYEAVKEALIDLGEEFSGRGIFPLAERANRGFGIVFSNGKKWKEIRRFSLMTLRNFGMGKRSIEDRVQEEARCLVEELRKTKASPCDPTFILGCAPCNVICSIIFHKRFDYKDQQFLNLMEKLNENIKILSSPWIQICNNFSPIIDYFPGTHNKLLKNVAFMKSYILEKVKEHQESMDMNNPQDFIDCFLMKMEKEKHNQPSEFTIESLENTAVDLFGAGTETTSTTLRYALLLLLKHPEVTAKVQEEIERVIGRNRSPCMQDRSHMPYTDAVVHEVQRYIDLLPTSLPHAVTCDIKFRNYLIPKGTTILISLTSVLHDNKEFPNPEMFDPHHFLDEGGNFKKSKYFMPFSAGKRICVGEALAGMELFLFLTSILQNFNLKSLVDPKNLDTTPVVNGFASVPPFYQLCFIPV

For `OC[C@@H]1[C@@H](O)[C@H](O)[C@@H](O)CN1CCCCCCCCC1CCCO1` (stereo partly shown) [UV-12], the IC50 (CYP2C9) was > 100 µM, the IC50 (CYP2C19) was > 100 µM and the Cmax (Mouse pharmacokinetics; in vivo) was 8880 to 12600 ng/mL. For the same molecule, the bioavailability (Mouse pharmacokinetics; in vivo) was 77%, the “CL as % of mouse liver blood flow” value (Mouse pharmacokinetics; in vivo, iv) was 31% and the “Vss relative to total body water” value (Mouse pharmacokinetics; in vivo, iv) was 3 fold. For the same molecule, the AUC(0-inf) (Mouse pharmacokinetics; in vivo, iv, 10 mg/kg) was 5910 ng·h/mL, the AUC(0-t) (Mouse pharmacokinetics; in vivo, iv, 10 mg/kg) was 5900 ng·h/mL and the Cmax (Mouse pharmacokinetics; in vivo, iv, 10 mg/kg) was 8880 ng/mL. The Vd (Mouse pharmacokinetics; in vivo, iv, 10 mg/kg) was 1.98 L/kg, the clearance (Mouse pharmacokinetics; in vivo, iv, 10 mg/kg) was 28.2 mL/min/kg and the AUC(0-inf) (Mouse pharmacokinetics; in vivo, po, 100 mg/kg) was 45500 ng·h/mL. For the same molecule, the AUC(0-t) (Mouse pharmacokinetics; in vivo, po, 100 mg/kg) was 43100 ng·h/mL, the Cmax (Mouse pharmacokinetics; in vivo, po, 100 mg/kg) was 12600 ng/mL and the Tmax (Mouse pharmacokinetics; in vivo, po, 100 mg/kg) was 30 min. For the same molecule, the half-life (Mouse pharmacokinetics; plasma, mice, IV 10 mg/kg) was 115 min, the IC50 [1] was 21.7 µM and the efflux ratio at 10 µM (in vitro [2]) was 4. For the same molecule, the “clinical signs and mortality, 7 days observation” value ([3]; IM 20-100 mg/kg, IV 10-80 mg/kg) was “no clinical signs of toxicity or mortality”, the MTD at 7 days ([3]; IV route) was > 80 mg/kg and the MTD at 7 days ([3]; im, intramuscular route) was > 100 mg/kg. For the same molecule, the “Levels of IL-9 and eotaxin” value [4] was “not different”, the “reduction in MCP-1” value ([4]; 72 h, p = 0.0641) was “not significant” and the KC levels ([4]; 72 h only) was “significantly higher”. The “Levels of IFN-γ” value ([4]; only at 72 h) was “significantly reduced”, the “MIP-1β, RANTES, and IL-10 levels” value ([4]; only at 96 h) was “reduced” and the “overall circulating cytokine levels” value ([4]; vs vehicle) was “dampened”. The “Liver microsome metabolic stability CLintr” value (in vitro [5]) was <0.6 mL/min/g liver, the half-life at 0.5 µM (in vitro [5]) was > 30 min and the “parent drug remained after 30 min” value (in vitro [5]; 0.5 h, 0.5 µM) was 100%. The fraction unbound at 6 h, 10 μM (in vitro [6]) was 0.32, the IC50 (ER α-glucosidase I) was 140 ± 100 nM and the CC50 at 5 days (in vitro [7]) was > 500 µM. For the same molecule, the fraction unbound at 6 h, 10 μM (in vitro [8]) was 0.32, the inhibition at 30 µM (hERG; human, CHO cells stably transfected with hERG, 30 μM, read-out: inhibition of hERG current) was 18.2% and the inhibition at 100 µM (hERG; human, CHO cells stably transfected with hERG, 100 μM, read-out: inhibition of hERG current) was 4.6%. For the same molecule, the inhibition at 300 µM (hERG; human, CHO cells stably transfected with hERG, 300 μM, read-out: inhibition of hERG current) was 19.1%, the IC50 (hERG; patch clamp, CHO-hERG, read-out: hERG Inhibition) was > 300 µM and the fraction unbound at 6 h, 10 μM (in vitro [9]) was 0.36. It also gave an IC50 [10] of 69.4 µM.
